Measured values from patent US10259847B2, “Beta-hairpin peptidomimetics” (POLYPHOR AG, priority 2014, dated 2019).
Where two headings read alike, the source gives them in different places. *1 amine or outer side, *2 acyl side, *3 side chain or, on linkers, in order; H or OH if unused. Where a SMILES comes first, the peptide text is derived from it. Bridges are numbered along the chain shown (N, C = ends). [ ]: non-standard residue; d: D form. Tle = CC(C)(C)[C@H](N)C(=O)O; dDab = NCC[C@@H](N)C(=O)O; hCys = N[C@@H](CCS)C(=O)O; Orn = NCCC[C@H](N)C(=O)O; Dab = NCC[C@H](N)C(=O)O; dAze = O=C(O)[C@H]1CCN1; Dap = NC[C@H](N)C(=O)O; CO = O=C([*:1])[*:2]

Experiments:
Format in all cases: cell-based
[1] = system: Acinetobacter baumannii DSM 30008
How it was run: (§1)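 Peptide MICs were determined by NCCLS broth microdilution in cation-adjusted Mueller-Hinton II broth. Inoculum was about 10^6 CFU/mL, matched to 0.5 McFarland, with peptides in two-fold serial dilutions. The broth contained Polysorbate 80 at 0.002% final concentration.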

[2] = system: Escherichia coli ATCC 25922
How it was run: as §1

[3] = system: Klebsiella pneumoniae ATCC 13883
How it was run: as §1

[4] = system: human red blood cells (hRBC); assay: Hemolysis of human red blood cells
Procedure: Stock solutions were kept at +4° C., light protected.
Percent hemolysis was calculated as follows: (OD540peptide/OD540H2O)×100%.

[5] = Mueller-Hinton broth II, 0.002% P-80, 18-20 hours at 35° C.

Structure (SMILES)	Acinetobacter baumannii DSM 30008 MIC ([1]; DSM 30008)	Escherichia coli ATCC 25922 MIC ([2]; ATCC 25922)	Klebsiella pneumoniae ATCC 13883 MIC ([3]; ATCC 13883)	Hemolysis at 100 μg/mL ([4]; red cells of human, 1 h, 100)	Acinetobacter baumannii DSM 30008 MIC [1, 5]	Escherichia coli ATCC 25922 MIC [2, 5]	Klebsiella pneumoniae ATCC 13883 MIC [3, 5]	Hemolysis at 100 μg/mL ([4]; 100 μg/mL, 20% hRBC (v/v), 1 h at 37° C.)
CC(C)C[C@@H]1NC(=O)[C@@H]2CCCN2C(=O)[C@H]2CCCN2C(=O)[C@H](CO)NC(=O)[C@@H]2CC(=O)NCCCC[C@H](NC1=O)C(=O)N[C@@H](Cc1ccc(O)cc1)C(=O)N[C@@H](CCN)C(=O)N[C@@H](CCCN)C(=O)N[C@@H](CCN)C(=O)N[C@@H](CCN)C(=O)N[C@@H](Cc1c[nH]c3ccccc13)C(=O)N[C@@H](CCN)C(=O)N[C@@H](C(C)(C)C)C(=O)N2 [Example 33, cyclo(-Leu-Lys-Tyr-Dab-Orn-Dab-Dab-Trp-Dab-tBuGly-Asp-Ser-^DPro-Pro-)] (HELM PEPTIDE1{L.K.Y.[Dab].[Orn].[Dab].[Dab].W.[Dab].[CC(C)(C)[C@H](N[*:1])C(=O)[*:2]].D.S.[dP].P}$PEPTIDE1,PEPTIDE1,2:R3-11:R3|PEPTIDE1,PEPTIDE1,1:R1-14:R2$$$V2.0)	1 µg/mL	1 µg/mL	4 µg/mL	1%	–	–	–	–
CC(C)C[C@@H]1NC(=O)[C@@H]2CCCN2C(=O)[C@H]2CCCN2C(=O)[C@H](CO)NC(=O)[C@@H]2CNC(=O)CC[C@H](NC1=O)C(=O)N[C@@H](Cc1ccc(O)cc1)C(=O)N[C@@H](CCN)C(=O)N[C@@H](CCCN)C(=O)N[C@H](CCN)C(=O)N[C@@H](CCN)C(=O)N[C@@H](Cc1c[nH]c3ccccc13)C(=O)N[C@@H](CCN)C(=O)N[C@@H](C(C)(C)C)C(=O)N2 [Example 34, cyclo(-Leu-Glu-Tyr-Dab-Orn-^DDab-Dab-Trp-Dab-tBuGly-Dap-Ser-^DPro-Pro-)] (cyclo(LEY[Dab][Orn][dDab][Dab]W[Dab][Tle][Dap]S[dP]P); lactam 2-11)	1 µg/mL	0.5 µg/mL	0.5 µg/mL	1%	–	–	–	–
CC(C)C[C@@H]1NC(=O)[C@@H]2CCCN2C(=O)[C@H]2CCCN2C(=O)[C@H](CO)NC(=O)[C@@H]2CC(=O)NCCCC[C@H](NC1=O)C(=O)N[C@@H](Cc1ccc(O)cc1)C(=O)N[C@@H](CCN)C(=O)N[C@@H](CCCN)C(=O)N[C@H](CCN)C(=O)N[C@@H](CCN)C(=O)N[C@@H](Cc1c[nH]c3ccccc13)C(=O)N[C@@H](CCN)C(=O)N[C@@H](C(C)(C)C)C(=O)N2 [Example 35, cyclo(-Leu-Lys-Tyr-Dab-Orn-^DDab-Dab-Trp-Dab-tBuGly-Asp-Ser-^DPro-Pro-)] (HELM PEPTIDE1{L.K.Y.[Dab].[Orn].[NCC[C@@H](N[*:1])C(=O)[*:2]].[Dab].W.[Dab].[CC(C)(C)[C@H](N[*:1])C(=O)[*:2]].D.S.[dP].P}$PEPTIDE1,PEPTIDE1,2:R3-11:R3|PEPTIDE1,PEPTIDE1,1:R1-14:R2$$$V2.0)	1 µg/mL	0.5 µg/mL	2 µg/mL	0%	–	–	–	–
CC(C)C[C@@H]1NC(=O)[C@@H]2CCCN2C(=O)[C@H]2CCCN2C(=O)[C@H](CO)NC(=O)[C@@H]2CC(=O)NC[C@H](NC1=O)C(=O)N[C@@H](Cc1ccc(O)cc1)C(=O)N[C@@H](CCN)C(=O)N[C@@H](CCCN)C(=O)N[C@H](CCN)C(=O)N[C@@H](CCN)C(=O)N[C@@H](Cc1c[nH]c3ccccc13)C(=O)N[C@@H](CCN)C(=O)N[C@@H](C(C)(C)C)C(=O)N2 [Example 36, cyclo(-Leu-Dap-Tyr-Dab-Orn-^DDab-Dab-Trp-Dab-tBuGly-Asp-Ser-^DPro-Pro-)] (cyclo(L[Dap]Y[Dab][Orn][dDab][Dab]W[Dab][Tle]DS[dP]P); lactam 2-11)	1.5 µg/mL	0.5 µg/mL	0.125 µg/mL	4.5%	–	–	–	–
CC(C)[C@@H]1NC(=O)[C@@H]2CCCN2C(=O)[C@H]2CCCN2C(=O)[C@H](CO)NC(=O)[C@H]2CSSC[C@@H](NC1=O)C(=O)N[C@@H](Cc1ccc(O)cc1)C(=O)N[C@@H](CCN)C(=O)N[C@@H](CN)C(=O)N[C@H](CCN)C(=O)N[C@@H](CCN)C(=O)N[C@@H](Cc1c[nH]c3ccccc13)C(=O)N[C@@H](CCN)C(=O)N[C@@H](C(C)(C)C)C(=O)N2 [Example 38, cyclo(-Val-^DCys-Tyr-Dab-Dap-^DDab-Dab-Trp-Dab-tBuGly-^DCys-Ser-^DPro-Pro-)] (cyclo(V[dC]Y[Dab][Dap][dDab][Dab]W[Dab][Tle][dC]S[dP]P); disulfide 2-11)	–	–	–	–	2 µg/mL	4 µg/mL	2 µg/mL	2%

Continued, in another order:

Acinetobacter baumannii DSM 30008 MIC ([1]; DSM 30008)	Escherichia coli ATCC 25922 MIC ([2]; ATCC 25922)	Klebsiella pneumoniae ATCC 13883 MIC ([3]; ATCC 13883)	Structure (SMILES)	Hemolysis at 100 μg/mL ([4]; red cells of human, 1 h, 100)	Acinetobacter baumannii DSM 30008 MIC [1, 5]	Escherichia coli ATCC 25922 MIC [2, 5]	Klebsiella pneumoniae ATCC 13883 MIC [3, 5]	Hemolysis at 100 μg/mL ([4]; 100 μg/mL, 20% hRBC (v/v), 1 h at 37° C.)
0.5 µg/mL	0.5 µg/mL	0.5 µg/mL	CC(C)C[C@@H]1NC(=O)[C@@H]2CCCN2C(=O)[C@H]2CCCN2C(=O)[C@H](CO)NC(=O)[C@@H]2CC(=O)NCC[C@H](NC1=O)C(=O)N[C@@H](Cc1ccc(O)cc1)C(=O)N[C@@H](CCN)C(=O)N[C@@H](CCCN)C(=O)N[C@H](CCN)C(=O)N[C@@H](CCN)C(=O)N[C@@H](Cc1c[nH]c3ccccc13)C(=O)N[C@@H](CCN)C(=O)N[C@@H](C(C)(C)C)C(=O)N2 [Example 37, cyclo(-Leu-Dab-Tyr-Dab-Orn-^DDab-Dab-Trp-Dab-tBuGly-Asp-Ser-^DPro-Pro-)] (HELM PEPTIDE1{L.[Dab].Y.[Dab].[Orn].[NCC[C@@H](N[*:1])C(=O)[*:2]].[Dab].W.[Dab].[CC(C)(C)[C@H](N[*:1])C(=O)[*:2]].D.S.[dP].P}$PEPTIDE1,PEPTIDE1,2:R3-11:R3|PEPTIDE1,PEPTIDE1,1:R1-14:R2$$$V2.0)	2.5%	–	–	–	–
2 µg/mL	1 µg/mL	1 µg/mL	CC(C)[C@@H]1NC(=O)[C@@H]2CCCN2C(=O)[C@H]2CCCN2C(=O)[C@H](CO)NC(=O)[C@@H]2CSSCC[C@H](NC1=O)C(=O)N[C@@H](Cc1ccc(O)cc1)C(=O)N[C@@H](CCN)C(=O)N[C@@H](CN)C(=O)N[C@H](CCN)C(=O)N[C@@H](CCN)C(=O)N[C@@H](Cc1c[nH]c3ccccc13)C(=O)N[C@@H](CCN)C(=O)N[C@@H](C(C)(C)C)C(=O)N2 [Example 39, cyclo(-Val-Hcy-Tyr-Dab-Dap-^DDab-Dab-Trp-Dab-tBuGly-Cys-Ser-^DPro-Pro-)] (cyclo(V[hCys]Y[Dab][Dap][dDab][Dab]W[Dab][Tle]CS[dP]P); disulfide 2-11)	2%	–	–	–	–
1 µg/mL	0.25 µg/mL	0.25 µg/mL	CC(C)[C@@H]1NC(=O)[C@@H]2CCCN2C(=O)[C@H]2CCCN2C(=O)[C@H](CO)NC(=O)[C@@H]2CNC(=O)NC[C@H](NC1=O)C(=O)N[C@@H](Cc1ccc(O)cc1)C(=O)N[C@@H](CCN)C(=O)N[C@@H](CN)C(=O)N[C@H](CCN)C(=O)N[C@@H](CCN)C(=O)N[C@@H](Cc1c[nH]c3ccccc13)C(=O)N[C@@H](CCN)C(=O)N[C@@H](C(C)(C)C)C(=O)N2 [Example 40, cyclo(-Val-Dap-Tyr-Dab-Dap-^DDab-Dab-Trp-Dab-tBuGly-Dap-Ser-^DPro-Pro-)] (cyclo(V[Dap]Y[Dab][Dap][dDab][Dab]W[Dab][Tle][Dap]S[dP]P); linker 2-11 via CO)	2%	–	–	–	–
1 µg/mL	0.5 µg/mL	0.25 µg/mL	CC(C)[C@@H]1NC(=O)[C@@H]2CCCN2C(=O)[C@H]2CCN2C(=O)[C@H]([C@@H](C)O)NC(=O)[C@H](CO)NC(=O)[C@H](C(C)(C)C)NC(=O)[C@H](CCN)NC(=O)[C@H](Cc2c[nH]c3ccccc23)NC(=O)[C@H](CCN)NC(=O)[C@@H](CCN)NC(=O)[C@H](CN)NC(=O)[C@H](CCN)NC(=O)[C@H](Cc2ccc(O)cc2)NC(=O)[C@H](CN)NC1=O [Example 41, cyclo(-Val-Dap-Tyr-Dab-Dap-^DDab-Dab-Trp-Dab-tBuGly-Ser-Thr-^DAzt-Pro-)] (cyclo([Dab][Dap][dDab][Dab]W[Dab][Tle]ST[dAze]PV[Dap]Y))	1%	–	–	–	–
4 µg/mL	1 µg/mL	1 µg/mL	CC(C)C[C@@H]1NC(=O)[C@H]2CCCN2C(=O)[C@H](CO)NC(=O)[C@H](C)NC(=O)[C@H](C(C)(C)C)NC(=O)[C@H](CCN)NC(=O)[C@H](Cc2c[nH]c3ccccc23)NC(=O)[C@H](CCN)NC(=O)[C@@H](CCN)NC(=O)[C@H](CCCN)NC(=O)[C@H](CCN)NC(=O)[C@H](Cc2ccc(O)cc2)NC(=O)[C@H](CN)NC(=O)[C@H](Cc2ccccc2)NC1=O [Example 42, cyclo(-Phe-Dap-Tyr-Dab-Orn-^DDab-Dab-Trp-Dab-tBuGly-Ala-Ser-^DPro-Leu-)] (cyclo(AS[dP]LF[Dap]Y[Dab][Orn][dDab][Dab]W[Dab][Tle]))	1%	–	–	–	–
1 µg/mL	1 µg/mL	0.25 µg/mL	C[C@@H]1NC(=O)[C@H](C(C)(C)C)NC(=O)[C@H](CCN)NC(=O)[C@H](Cc2c[nH]c3ccccc23)NC(=O)[C@H](CCN)NC(=O)[C@@H](CCN)NC(=O)[C@H](CCCN)NC(=O)[C@H](CCN)NC(=O)[C@H](Cc2ccc(O)cc2)NC(=O)[C@H](CN)NC(=O)[C@H](Cc2ccccc2)NC(=O)[C@H](Cc2ccccc2)NC(=O)[C@H]2CCCN2C(=O)[C@H](CO)NC1=O [Example 43, cyclo(-Phe-Dap-Tyr-Dab-Orn-^DDab-Dab-Trp-Dab-tBuGly-Ala-Ser-^DPro-Phe-)] (cyclo(AS[dP]FF[Dap]Y[Dab][Orn][dDab][Dab]W[Dab][Tle]))	1%	–	–	–	–
